In this experiment the target is α-glucosidase. As to the kind of experiment: pNPG colorimetric enzyme kinetics (Lineweaver–Burk; IC50 […]), supported by fluorescence quenching and circular dichroism. It counts as biochemical, Saccharomyces cerevisiae.

`COc1c(O)cc2oc3cc(O)c(CC=C(C)C)c(O)c3c(=O)c2c1CC=C(C)C` [α-mangostin, 1,3,6-trihydroxy-7-methoxy-2,8-bis(3-methylbut-2-en-1-yl)-9H-xanthen-9-one] yielded an inhibitory constant (Ki) of 30.3 µM.

The values above are taken from publication PMC8777799, “Anti-α-Glucosidase and Antiglycation Activities of α-Mangostin and New Xanthenone Derivatives: Enzymatic Kinetics and Mechanistic Insights through In Vitro Studies” (Molecules, 2022).
